Source: ChEMBL document CHEMBL1201862, “PubChem BioAssay data set” (2004)
Counter-ions that a name gives are not always drawn.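 A five-concentration, 48-hour dose response in 96-well plates underlies each endpoint, interpolated linearly between surrounding concentrations. GI50 marks 50% less growth.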 Calls of active or inactive are those of the source. No stated cut-off is given here; in the data, active = GI50 up to about 1.1 µM and inactive = higher.

Columns and labels:
Assay in all cases: inhibition of tumour cell growth, NCI panel, 48 h
[1] = test system: KM12
[2] = test system: UACC-257
[3] = test system: T47D
[4] = test system: BT-549
[5] = test system: ACHN
[6] = test system: SNB-19
[7] = test system: SW-620
[8] = test system: HCT-15
[9] = test system: SN12C
[10] = test system: Malme-3M
[11] = test system: NCI/ADR-RES
[12] = test system: MDA-MB-435
[13] = test system: RPMI-8226
[14] = test system: SK-OV-3
[15] = test system: RXF 393
[16] = test system: A498
[17] = test system: Hs-578T
[18] = test system: SF-295
[19] = test system: MDA-MB-231
[20] = test system: UACC-62

Compound: O=C(O)c1nn(-c2ccc(Cl)cc2)c2c1C(=O)c1ccccc1C2=O
- GI50 [1]: > 100 µM (inactive)
- GI50 [2]: > 100 µM (inactive)
- GI50 [3]: > 100 µM (inactive)
- GI50 [4]: > 100 µM (inactive)
- GI50 [5]: > 100 µM (inactive)
- GI50 [6]: > 100 µM (inactive)
- GI50 [7]: > 100 µM (inactive)
- GI50 [8]: > 100 µM
- GI50 [9]: > 100 µM (inactive)
- GI50 [10]: 5.42 µM (inactive)
- GI50 [11]: > 100 µM (inactive)
- GI50 [12]: > 100 µM (inactive)
- GI50 [13]: > 100 µM (inactive)
- GI50 [14]: > 100 µM (inactive)
- GI50 [15]: 17.5 µM (inactive)
- GI50 [16]: > 100 µM (inactive)
- GI50 [17]: > 100 µM (inactive)
- GI50 [18]: > 100 µM (inactive)
- GI50 [19]: 41.3 µM (inactive)
- GI50 [20]: > 100 µM (inactive)

Compound: CN1CCC(CN2c3ccccc3Sc3ccccc32)C1 (configuration not stated) [METHDILAZINE HYDROCHLORIDE]
- GI50 [1]: 17.9 µM (inactive)
- GI50 [2]: 11.8 µM (inactive)
- GI50 [3]: 15.8 µM (inactive)
- GI50 [4]: 16.8 µM (inactive)
- GI50 [5]: 14.7 µM (inactive)
- GI50 [6]: 17.9 µM (inactive)
- GI50 [7]: 19.2 µM (inactive)
- GI50 [8]: 16.2 µM
- GI50 [9]: 15.3 µM (inactive)
- GI50 [10]: 16.5 µM (inactive)
- GI50 [11]: 15.2 µM (inactive)
- GI50 [12]: 10.1 µM (inactive)
- GI50 [13]: 15.1 µM (inactive)
- GI50 [14]: 17.3 µM (inactive)
- GI50 [15]: 3.5 µM (inactive)
- GI50 [16]: 13.1 µM (inactive)
- GI50 [17]: 15.4 µM (inactive)
- GI50 [18]: 16.1 µM (inactive)
- GI50 [19]: 14 µM (inactive)
- GI50 [20]: 12.8 µM (inactive)

Compound: Cc1ncc([N+](=O)[O-])n1CCNCCCCn1ccnc1[N+](=O)[O-]
- GI50 [1]: > 100 µM (inactive)
- GI50 [2]: > 100 µM (inactive)
- GI50 [3]: > 100 µM (inactive)
- GI50 [4]: 45.5 µM (inactive)
- GI50 [5]: > 100 µM (inactive)
- GI50 [7]: > 100 µM (inactive)
- GI50 [8]: > 100 µM
- GI50 [9]: > 100 µM (inactive)
- GI50 [10]: > 100 µM (inactive)
- GI50 [11]: > 100 µM (inactive)
- GI50 [12]: > 100 µM (inactive)
- GI50 [13]: > 100 µM (inactive)
- GI50 [14]: > 100 µM (inactive)
- GI50 [15]: > 100 µM (inactive)
- GI50 [16]: > 100 µM (inactive)
- GI50 [17]: > 100 µM (inactive)
- GI50 [18]: > 100 µM (inactive)
- GI50 [19]: > 100 µM (inactive)
- GI50 [20]: > 100 µM (inactive)

Compound: CC(=O)SC(C[N+](=O)[O-])c1ccccc1 (configuration not stated)
- GI50 [1]: 4.99 µM (inactive)
- GI50 [2]: 11.3 µM (inactive)
- GI50 [3]: 10.4 µM (inactive)
- GI50 [4]: 2.22 µM (inactive)
- GI50 [5]: 3.66 µM (inactive)
- GI50 [6]: 11.9 µM (inactive)
- GI50 [7]: 2.18 µM (inactive)
- GI50 [8]: 2.21 µM
- GI50 [9]: 11.1 µM (inactive)
- GI50 [10]: 16.6 µM (inactive)
- GI50 [11]: 20.1 µM (inactive)
- GI50 [12]: 2.09 µM (inactive)
- GI50 [13]: 2.05 µM (inactive)
- GI50 [14]: 13.3 µM (inactive)
- GI50 [15]: 2.1 µM (inactive)
- GI50 [16]: 5.43 µM (inactive)
- GI50 [17]: 4.65 µM (inactive)
- GI50 [18]: 6.15 µM (inactive)
- GI50 [19]: 10.8 µM (inactive)
- GI50 [20]: 13.9 µM (inactive)

Compound: CC(Oc1ccccc1Cl)C(=O)NN1C(=O)CC(=O)NC1=S (configuration not stated)
- GI50 [1]: 83.8 µM (inactive)
- GI50 [2]: > 100 µM (inactive)
- GI50 [3]: 36.6 µM (inactive)
- GI50 [4]: > 100 µM (inactive)
- GI50 [5]: 63.7 µM (inactive)
- GI50 [6]: > 100 µM (inactive)
- GI50 [7]: > 100 µM (inactive)
- GI50 [8]: > 100 µM
- GI50 [9]: > 100 µM (inactive)
- GI50 [10]: > 100 µM (inactive)
- GI50 [11]: > 100 µM (inactive)
- GI50 [12]: > 100 µM (inactive)
- GI50 [13]: 98.9 µM (inactive)
- GI50 [14]: > 100 µM (inactive)
- GI50 [15]: > 100 µM (inactive)
- GI50 [16]: > 100 µM (inactive)
- GI50 [17]: > 100 µM (inactive)
- GI50 [18]: 89.5 µM (inactive)
- GI50 [19]: > 100 µM (inactive)
- GI50 [20]: 46.1 µM (inactive)

Compound: O=[N+]([O-])c1ccc(CSC2=C(c3ccc(Cl)cc3)S/C(=C3\SC(SCc4ccc([N+](=O)[O-])cc4)=C(c4ccc(Cl)cc4)S3)S2)cc1
- GI50 [1]: > 100 µM (inactive)
- GI50 [2]: > 100 µM (inactive)
- GI50 [3]: > 100 µM (inactive)
- GI50 [4]: > 100 µM (inactive)
- GI50 [5]: > 100 µM (inactive)
- GI50 [6]: > 100 µM (inactive)
- GI50 [7]: > 100 µM (inactive)
- GI50 [8]: > 100 µM
- GI50 [9]: > 100 µM (inactive)
- GI50 [10]: > 100 µM (inactive)
- GI50 [11]: > 100 µM (inactive)
- GI50 [12]: > 100 µM (inactive)
- GI50 [14]: > 100 µM (inactive)
- GI50 [15]: > 100 µM (inactive)
- GI50 [16]: > 100 µM (inactive)
- GI50 [17]: > 100 µM (inactive)
- GI50 [18]: > 100 µM (inactive)
- GI50 [19]: > 100 µM (inactive)
- GI50 [20]: > 100 µM (inactive)

Compound: COc1cc(OC)c(-n2[nH]c(=O)n(C)c2=O)c(OC)c1
- GI50 [1]: > 100 µM (inactive)
- GI50 [2]: > 100 µM (inactive)
- GI50 [3]: > 100 µM (inactive)
- GI50 [4]: > 100 µM (inactive)
- GI50 [6]: > 100 µM (inactive)
- GI50 [7]: > 100 µM (inactive)
- GI50 [8]: > 100 µM
- GI50 [9]: > 100 µM (inactive)
- GI50 [10]: > 100 µM (inactive)
- GI50 [11]: > 100 µM (inactive)
- GI50 [12]: > 100 µM (inactive)
- GI50 [13]: > 100 µM (inactive)
- GI50 [14]: > 100 µM (inactive)
- GI50 [15]: > 100 µM (inactive)
- GI50 [16]: > 100 µM (inactive)
- GI50 [17]: > 100 µM (inactive)
- GI50 [19]: > 100 µM (inactive)
- GI50 [20]: > 100 µM (inactive)

Compound: CCN(CC)c1ccc(/C=C/C2=NN(c3cccc(S(=O)(=O)O)c3)C3(C2)SCC(=O)N3c2nc3ccccc3s2)cc1 (configuration not stated)
- GI50 [1]: 23.9 µM (inactive)
- GI50 [2]: 30.5 µM (inactive)
- GI50 [3]: 17.6 µM (inactive)
- GI50 [4]: 60.1 µM (inactive)
- GI50 [5]: 25.8 µM (inactive)
- GI50 [6]: 39.8 µM (inactive)
- GI50 [7]: 42.9 µM (inactive)
- GI50 [8]: 45.6 µM
- GI50 [9]: 59 µM (inactive)
- GI50 [10]: 24.7 µM (inactive)
- GI50 [11]: > 100 µM (inactive)
- GI50 [12]: 23.6 µM (inactive)
- GI50 [13]: 17.9 µM (inactive)
- GI50 [15]: > 100 µM (inactive)
- GI50 [16]: 27.5 µM (inactive)
- GI50 [17]: 33.3 µM (inactive)
- GI50 [19]: 55.1 µM (inactive)
- GI50 [20]: 37.7 µM (inactive)

Compound: Clc1ccc(-c2cn3c(nc4ccccc43)c(/C=C/c3ccco3)n2)cc1
- GI50 [1]: 29.5 µM (inactive)
- GI50 [2]: 50.6 µM (inactive)
- GI50 [3]: 22.9 µM (inactive)
- GI50 [4]: 51.4 µM (inactive)
- GI50 [5]: 37.9 µM (inactive)
- GI50 [6]: 41.4 µM (inactive)
- GI50 [7]: 36.8 µM (inactive)
- GI50 [8]: 57.5 µM
- GI50 [9]: 50 µM (inactive)
- GI50 [10]: 70.3 µM (inactive)
- GI50 [11]: 42.1 µM (inactive)
- GI50 [12]: 23.2 µM (inactive)
- GI50 [13]: 16.1 µM (inactive)
- GI50 [14]: 90.2 µM (inactive)
- GI50 [15]: 33.7 µM (inactive)
- GI50 [16]: 29.5 µM (inactive)
- GI50 [17]: 14.8 µM (inactive)
- GI50 [19]: 28.4 µM (inactive)
- GI50 [20]: 41.8 µM (inactive)

Compound: O=C1C=C(c2ccccc2)O/C1=C\C(=O)c1ccc(Cl)cc1
- GI50 [1]: 34.4 µM (inactive)
- GI50 [2]: 18.2 µM (inactive)
- GI50 [3]: 23.3 µM (inactive)
- GI50 [4]: 12.5 µM (inactive)
- GI50 [5]: 16.1 µM (inactive)
- GI50 [6]: > 100 µM (inactive)
- GI50 [7]: 1.73 µM (inactive)
- GI50 [8]: 17.5 µM
- GI50 [9]: 3.66 µM (inactive)
- GI50 [10]: 13.6 µM (inactive)
- GI50 [11]: 23.2 µM (inactive)
- GI50 [12]: 15.8 µM (inactive)
- GI50 [13]: 16.7 µM (inactive)
- GI50 [14]: 98.4 µM (inactive)
- GI50 [15]: 17.7 µM (inactive)
- GI50 [16]: 80.2 µM (inactive)
- GI50 [17]: 21.9 µM (inactive)
- GI50 [19]: 18.1 µM (inactive)
- GI50 [20]: 15.6 µM (inactive)
